The text below walks through data of patent US7605156B2, “Methods for the use of inhibitors of cytosolic phospholipase A2” (Wyeth, priority 2001, dated 2009).

In assay [1] the test system is B6 mice. The assay can be described thus: Experimental autoimmune encephalomyelitis (EAE), animal model of multiple sclerosis. Format: in vivo. The settings on record: orally, 100 mg/kg, twice/day. How it is done: Six groups of B6 mice were immunized with MOG/CFA and injected with pertussis toxin to induce experimental autoimmune encephalomyelitis (EAE), an animal model of Multiple sclerosis. […] Another three groups of mice were treated with vehicle, Compound A or Compound B starting on the day of EAE onset (day 15) (orally, 100 mg/kg, twice/day). […] The results are shown in FIG. 1, wherein mean clinical score is a mean of clinical evaluation of each animal for that particular day. Animals are scored as follows: • 0 no clinical signs of EAE (no paralysis) • 1—paralysis of tail • 2—paralysis of tail and partial hind leg paralysis • 3—paralysis of tail And complete hind leg paralysis • 4—paralysis of tail, complete hind leg paralysis and a partial front leg paralysis • 5—moribund animal (all four limbs paralyzed, lack of responsiveness, these mice were immediately euthanized).

The subject of assay [2] is Primary cerebellar granule neurons. Briefly: Oxygen-glucose deprivation (OGD) in cultured neurons. Format: cell-based, rat. The settings on record: various concentrations, added 60 minutes before OGD; 2 hours OGD, read 24 hours later. How it is done:
Primary cerebellar granule neurons were isolated from P5-8 rat pups. Briefly, cerebelli were collected and pooled in ice-cold phosphate buffer saline (PBS) without Ca^2+ and Mg^2+. The tissue was finely chopped and transferred to an enzymatic dissociation media containing 20 IU/ml papain in Earle's balanced salt solution (Worthington Biochemical, Freehold, N.J.) and incubated for 30 minutes at 37° C. After enzymatic dissociation, the papain solution was aspirated and the tissue mechanically triturated with a fire-polished Pasteur pipette in complete media [Neurobasal Medium with B-27 supplement (Gibco, Grand Island, N.Y.), penicillin/streptomycin, aphidicolin, glutamate, potassium chloride] containing 2,000 IU/ml DNase and 10 mg/ml ovomucoid protease inhibitor. Single-cell suspensions in complete media were plated on pre-coated poly-L-ornithine/laminin 24-well plates (Becton-Dickinson, Bedford, Mass.) at a density of 5.0×10^5 cells/well. Cells were maintained for two weeks prior to experimentation.
Cultures were treated with Compound A at various concentrations, 60 minutes before OGD. Media was removed and replaced with deoxygenated buffer in an anaerobic chamber (80% nitrogen, 10% hydrogen, 10% carbon dioxide gas mixture). […] Cell death was determined by measuring lactate dehydrogenase release into the media 24 hours later (Roche Biochemicals). […]

In assay [3] the test system is Adult male Wistar rats. Briefly: Transient middle cerebral artery occlusion (tMCAO). It is filed as in vivo. How it is done: Adult male Wistar rats (Charles River, Wilmington, Mass.) 290-310 g were anesthetized with 3% isoflurane in 70% nitrous oxide and 30% oxygen through a nose cone. Temperature was maintained at 37° C. throughout the surgery using a heating lamp. Transient MCAO was induced for 90 min using the intraluminal suture method (see Longa, E. L. et al., 1989 Stroke 20:294-297). Briefly, an 18 mm length of 4-0 monofilament nylon suture coated with 0.1% poly-L-lysine (Belayev, L. et al, 1996 Stroke 27:1616-1623) and a flame-rounded tip was inserted into the external carotid artery and advanced through the internal carotid to occlude the origin of the middle cerebral artery (MCAO). Ninety minutes later the rats were re-anesthetized and the suture was withdrawn. Rats were sacrificed at 72 hrs post-MCAO.
Behavioral score: Animals are tested for motor deficits using a modified Bederson score. Briefly, animals are tested for flexion of the contralateral forelimb, twisting of the torso, decreased resistance to lateral push, circling to the contralateral side when holding the tail, and spontaneous circling. Each animal is scored 1 point for each behavior detected for a total of 5 points. Each animal is score at 90 min, just prior to reperfusion, at 24 hrs, 48 hrs and 72 hrs following MCAO.
Body weight is taken prior to MCAO surgery for baseline and 24 hrs, 48 hrs and 72 hrs after MCAO.
(§1) After sacrifice, the brains are extracted and placed in a rat brain matrix and 2 mm coronal slabs are taken from 4 mm caudal to the frontal pole and extending to the hindbrain. Sections are immersed in the active mitochondrial stain TTC at 37° C. for 10 min to delineate the lesion. Digitized sections are collected on the MCID image analysis system (Imaging Research, Inc. Ontario, Canada), area measurements are determined and a total lesion volume is calculated (area×distance in mm).

In assay [4] the test system is Adult male Wistar rats. Briefly: Permanent middle cerebral artery occlusion (pMCAO). It is filed as in vivo. The settings on record: dosed four times; 72 hours post ischemia. How it is done: Adult male Wistar rats (Charles River, Wilmington, Mass.) 270-300 g were anesthetized with 3% isoflurane in 70% nitrous oxide and 30% oxygen through a nose cone. Temperature was maintained at 37° C. throughout the surgery using a heating lamp. Permanent occlusion of MCAO was induced by electrocauterization of the distal portion of the MCA (via a craniotomy) with a 120 min ligation of both carotid arteries to interrupt collateral circulation (see Chen, S. T., et al, 1986 Stroke 17:738-743). Rats were sacrificed 72 hours post ischemia for measurement of infarct volume.
as §1

In assay [5] the test system is Primary dopaminergic neurons. The assay can be described thus: MPP+ exposure in dopaminergic neurons (3H-dopamine uptake). It is filed as cell-based, rat. Conditions: 10 μM MPP+ for 60 minutes, read 24 hours later. How it is done:
Primary dopaminergic neurons were isolated from E15 rat embryos as described in Pong K., et al., (1997) J. Neurochem. 69 986-994. Briefly, the ventral mesencephalon was isolated and tissue was pooled in ice-cold phosphate buffer saline (PBS) without Ca^2+ and Mg^2+. The tissue was transferred to an enzymatic dissociation media containing 20 IU/ml papain in Earle's balanced salt solution (Worthington Biochemical, Freehold, N.J.) and incubated for 30 minutes at 37° C. After enzymatic dissociation, the papain solution was aspirated and the tissue mechanically triturated with a fire-polished Pasteur pipette in complete media [Neurobasal Medium with B-27 supplement (Gibco, Grand Island, N.Y.), penicillin/streptomycin, aphidicolin, glutamate] containing 2,000 IU/ml DNase and 10 mg/ml ovomucoid protease inhibitor. Single-cell suspensions in complete media were plated on pre-coated poly-L-ornithine/laminin 24-well plates (Becton-Dickinson, Bedford, Mass.) at a density of 5.0×10^5 cells/well. […]
Cultures were treated with various concentrations of Compound A and GDNF (glial-cell line derived neurotrophic factor, a positive control) hours before exposure to the neurotoxin MPP^+, the toxic metabolite of MPTP. […] Dopaminergic neuron viability was determined 24 hours later by measuring ^3H-dopamine uptake as described in Pong et al., 1997, supra.

Where [6] appears, read: 10 mg/kg and 30 mg/kg four times.

Take `Cc1cccc(C)c1CS(=O)(=O)NCCc1c(CCCc2ccc(C(=O)O)cc2)c2cc(Cl)ccc2n1C(c1ccccc1)c1ccccc1` [Example 52, 4-{3-[1-benzhydryl-5-chloro-2-(2-{[(2,6-dimethylbenzyl)-sulfonyl]amino}ethyl)-1H-indol-3-yl]propyl}benzoic acid]: the “EAE clinical score: prevention of EAE” value in assay [1] (from the day of immunization) is “prevent EAE”. For the same molecule, in assay [1] (starting on the day of EAE onset (day 15)), the “EAE clinical score: clinical severity of EAE” value was “reduce clinical severity of EAE”. The “OGD-induced cell death (lactate dehydrogenase release)” value in assay [2] is “effective in protecting cultured neurons from OGD-induced cell death”. In addition, in assay [3] (setting [6]), the “behavioral deficits (modified Bederson score)” value was “effectively reduced behavioral deficits” and the “weight loss following MCAO” value is recorded as “reduced weight loss”. The infarct volume result in assay [3] (10 mg/kg or 30 mg/kg four times (90 min, […], 24 hr, 48 hr post occlusion)) was “significant level of neuroprotection”. Also, the “therapeutically relevant window of opportunity” value in assay [3] (30 mg/kg 3 times, first dose 4 or 6 hrs post occlusion, measuring infarct volume and neurological deficits) is “at least 6 hrs”. The same molecule showed a significant treatment window in assay [3] (30 mg/kg 3 times, first dose 4 or 6 hrs post occlusion, measuring weight loss) of 4 h. Also, in assay [4], the infarct volume entry was “significantly reduces infarct volume”. The “dopaminergic neuron viability (3H-dopamine uptake)” value in assay [5] is reported as “effective to protect dopaminergic neuron viability against MPP^+”.
